Laboratory results reported in patent publication US11919965B2, “Methods of treating multiple myeloma with bispecific anti-BCMA x anti-CD3 antibodies” (Regeneron Pharmaceuticals, Inc., priority 2019, dated 2024).

Key:
[1] = system: BCMA-expressing MOLP-8 multiple myeloma tumors; experiment: Xenogenic tumor model, MOLP-8 + human PBMC s.c. in NSG mice, dose response (Example 13); format: in vivo, mouse
Method: To determine the in vivo efficacy of anti-BCMA×anti-CD3 bispecific antibodies (Abs), a xenogenic tumor study was performed. Immunodeficient NOD.Cg-Prkdc^scidII2rg^tm1Wjl/SzJ (NSG) mice were subcutaneously implanted with a mixture of 5×10^6 BCMA-expressing MOLP-8 human multiple myeloma tumor cells and 1×10^6 human peripheral blood mononuclear cells (PBMC) isolated from a normal, healthy donor. […] The mice were administered these Abs twice per week for a total of seven doses, and tumor growth was assessed over 56 days. While the BCMA+ MOLP-8 tumors grew similarly in the vehicle- and CD3-binding control-treated mice, both BCMA×CD3 Abs that were tested prevented the growth of tumors in a dose-dependent manner in vivo.
Implantation and measurement of xenogenic tumors: NSG mice were subcutaneously implanted with a mixture of 5×10^6 BCMA-expressing MOLP-8 multiple myeloma cells and 1×10^6 PBMC derived from a normal, healthy donor. […] The mice were administered Abs twice per week for a total of seven doses. Tumor growth was measured by caliper twice per week for the duration of the experiment.
(§1) Calculation of xenogenic tumor growth and inhibition: In order to determine tumor volume by external caliper, the greatest longitudinal diameter (length in mm) and the greatest transverse diameter (width in mm) were determined. Tumor volumes based on caliper measurements were calculated by the formula: Volume (mm^3)=(length× width^2)/2.

[2] = system: BCMA-expressing NCI-H929 multiple myeloma tumors; experiment: Xenogenic tumor model, NCI-H929 + human PBMC s.c. in NSG mice, treatment from implantation (Example 10); format: in vivo, mouse; details: 4 mg/kg
Method: To determine the in vivo efficacy of BCMA×CD3 bispecific antibodies (Abs), a xenogenic tumor study was performed. Immunodeficient NOD.Cg-Prkdc^scidII2rgtm1Wjl/SzJ (NSG) mice were subcutaneously implanted with a mixture of 10×10^6 BCMA-expressing NCI-H929 multiple myeloma cells and 0.5×10^6 human peripheral blood mononuclear cells (PBMC) isolated from a normal donor. […] The mice were administered Abs twice per week for a total of three weeks, and tumor growth was assessed over 40 days. While BCMA^+ tumors grew similarly in the vehicle-, isotype control-, and CD3-binding control-treated mice, both BCMA×CD3 Abs that were tested prevented the growth of tumors in vivo.
Implantation and measurement of syngeneic tumors: NSG mice were subcutaneously implanted with a mixture of 10×10^6 BCMA-expressing NCI-H929 multiple myeloma cells and 0.5×10^6 PBMC derived from a normal donor. […] The mice were administered Abs twice per week for a total of three weeks. Tumor growth was measured with calipers twice per week for the duration of the experiment. Mice were sacrificed 40 days after tumor implantation.
as §1, with “syngeneic” for “xenogenic”

[3] = system: Jurkat/NFATLuc.3C7 reporter cells with Daudi cells (BCMA positive); experiment: Jurkat/NFATLuc reporter bioassay (T-cell activation); format: cell-based, human
Method: (§2) Activity of the anti-BCMA×anti-CD3 bispecific antibodies were assessed in a Jurkat/NFATLuc reporter bioassay utilizing several cell lines with varying levels of BCMA surface expression. The Jurkat cells were engineered to express an NFAT-luciferase reporter (Jurkat/NFATLuc.3C7), and 50,000 Jurkat reporter cells were combined with 50,000 BCMA positive (Daudi, MM1-S, NCI-H929, OPM-2, RPMI-8226, MOLP-8, or Raji) or BCMA negative (HEK293) cells in Thermo Nunclon delta 96 well white microwell plates (Thermo Scientific, Cat #136102) in 50 ul of assay media (RPMI media with 10% FBS and 1% P/S/G). Three-fold serial dilutions of the BCMA×CD3 bispecific antibodies (mAb25441D or mAb25442D), or a bivalent anti-BCMA antibody (mAb21581) were immediately added in 50 uL of assay buffer. The plates were gently agitated and incubated in a 37° C., 5% CO2 incubator for 4-6 hours. NFAT-Luciferase activity was determined using Promega One-Glo (Cat #E6130) and a Perkin Elmer Envision plate reader. RLU were plotted in GraphPad Prism using a four-parameter logistic equation over a 12-point response curve to calculate EC50 values. The no antibody treatment condition for each dose-response curve is also included in the analysis as a continuation of the three-fold serial dilution and is represented as the lowest dose. The signal to noise (S:N) is determined by taking the ratio of the highest RLU on the curve to the lowest.

[4] = system: Jurkat/NFATLuc.3C7 reporter cells with MOLP-8 cells (BCMA positive); experiment: as above; format: cell-based, human
Method: as §2

With “REGN5459: anti-BCMA×anti-CD3 bispecific antibody: mAb21581 BCMA heavy chain, mAb7221G20 CD3 heavy chain and common light chain; SEQ ID NOs 126, 128, 129” the “Average Tumor Size (mm3) ± SEM on Day 3” value ([1]; 0.04 mg/kg) was 11.7 ± 2.1 mm3, the “Average Tumor Size (mm3) ± SEM on Day 7” value ([1]; 0.04 mg/kg) was 37.0 ± 5.7 mm3 and the “Average Tumor Size (mm3) ± SEM on Day 10” value ([1]; 0.04 mg/kg) was 104 ± 23.0 mm3. For the same substance, the “Average Tumor Size (mm3) ± SEM on Day 14” value ([1]; 0.04 mg/kg) was 356.7 ± 84.6 mm3, the “Average Tumor Size (mm3) ± SEM on Day 17” value ([1]; 0.04 mg/kg) was 645.6 ± 140.9 mm3 and the “Average Tumor Size (mm3) ± SEM on Day 21” value ([1]; 0.04 mg/kg) was 1442.4 ± 310.7 mm3. For the same substance, the “Average Tumor Size (mm3) ± SEM on Day 23” value ([1]; 0.04 mg/kg) was 2124.4 ± 444.1 mm3, the “Average Tumor Size (mm3) ± SEM on Day 28” value ([1]; 0.04 mg/kg) was 1939.3 ± 840.6 mm3 and the “Average Tumor Size (mm3) ± SEM on Day 31” value ([1]; 0.04 mg/kg) was 2688.7 ± 1176.6 mm3. For the same substance, the “Average Tumor Size (mm3) ± SEM on Day 35” value ([1]; 0.04 mg/kg) was 612.1 ± 0 mm3, the “Average Tumor Size (mm3) ± SEM on Day 3” value ([1]; 0.4 mg/kg) was 14.0 ± 1.6 mm3 and the “Average Tumor Size (mm3) ± SEM on Day 7” value ([1]; 0.4 mg/kg) was 0 ± 0 mm3. The “Average Tumor Size (mm3) ± SEM on Day 10” value ([1]; 0.4 mg/kg) was 0 ± 0 mm3, the “Average Tumor Size (mm3) ± SEM on Day 14” value ([1]; 0.4 mg/kg) was 0 ± 0 mm3 and the “Average Tumor Size (mm3) ± SEM on Day 17” value ([1]; 0.4 mg/kg) was 0 ± 0 mm3. The “Average Tumor Size (mm3) ± SEM on Day 21” value ([1]; 0.4 mg/kg) was 0 ± 0 mm3, the “Average Tumor Size (mm3) ± SEM on Day 23” value ([1]; 0.4 mg/kg) was 0 ± 0 mm3 and the “Average Tumor Size (mm3) ± SEM on Day 28” value ([1]; 0.4 mg/kg) was 0 ± 0 mm3. For the same substance, the “Average Tumor Size (mm3) ± SEM on Day 31” value ([1]; 0.4 mg/kg) was 0 ± 0 mm3, the “Average Tumor Size (mm3) ± SEM on Day 35” value ([1]; 0.4 mg/kg) was 0 ± 0 mm3 and the “Average Tumor Size (mm3) ± SEM on Day 42” value ([1]; 0.4 mg/kg) was 0 ± 0 mm3. The “Average Tumor Size (mm3) ± SEM on Day 56” value ([1]; 0.4 mg/kg) was 0 ± 0 mm3, the “Average Tumor Size (mm3) ± SEM on Day 3” value ([1]; 4 mg/kg) was 12.9 ± 1.3 mm3 and the “Average Tumor Size (mm3) ± SEM on Day 7” value ([1]; 4 mg/kg) was 0.6 ± 0.6 mm3. The “Average Tumor Size (mm3) ± SEM on Day 10” value ([1]; 4 mg/kg) was 0 ± 0 mm3, the “Average Tumor Size (mm3) ± SEM on Day 14” value ([1]; 4 mg/kg) was 0 ± 0 mm3 and the “Average Tumor Size (mm3) ± SEM on Day 17” value ([1]; 4 mg/kg) was 0 ± 0 mm3. The “Average Tumor Size (mm3) ± SEM on Day 21” value ([1]; 4 mg/kg) was 0 ± 0 mm3, the “Average Tumor Size (mm3) ± SEM on Day 23” value ([1]; 4 mg/kg) was 0 ± 0 mm3 and the “Average Tumor Size (mm3) ± SEM on Day 28” value ([1]; 4 mg/kg) was 1.9 ± 1.9 mm3. The “Average Tumor Size (mm3) ± SEM on Day 31” value ([1]; 4 mg/kg) was 3.8 ± 3.0 mm3, the “Average Tumor Size (mm3) ± SEM on Day 35” value ([1]; 4 mg/kg) was 9.3 ± 7.5 mm3 and the “Average Tumor Size (mm3) ± SEM on Day 42” value ([1]; 4 mg/kg) was 12.8 ± 12.8 mm3. The “Average Tumor Size (mm3) ± SEM on Day 56” value ([1]; 4 mg/kg) was 17.2 ± 17.2 mm3, the “Average Tumor Size (mm3) ± SEM on Day 4” value [2] was 26.5 ± 6.2 mm3 and the “Average Tumor Size (mm3) ± SEM on Day 7” value [2] was 0 ± 0 mm3. The “Average Tumor Size (mm3) ± SEM on Day 11” value [2] was 0 ± 0 mm3, the “Average Tumor Size (mm3) ± SEM on Day 14” value [2] was 0 ± 0 mm3 and the “Average Tumor Size (mm3) ± SEM on Day 18” value [2] was 0 ± 0 mm3. The “Average Tumor Size (mm3) ± SEM on Day 21” value [2] was 0 ± 0 mm3, the “Average Tumor Size (mm3) ± SEM on Day 28” value [2] was 0 ± 0 mm3 and the “Average Tumor Size (mm3) ± SEM on Day 40” value [2] was 0 ± 0 mm3. The “S:N (highest RLU to lowest)” value [3] was 25 and the “S:N (highest RLU to lowest)” value [4] was 31.
